This note sets out measurements from article PMC11791314 (The Journal of Biological Chemistry, 2024).

The target of assay [1] is T1, blood cell-specific α1/β1-tubulin (ChET), β1-tubulin (Gallus gallus, UniProt P02552+P09207).
T1 construct: gene TUBA1A; native α1/β1-tubulin purified from the marginal band of chicken erythrocytes; with α1-tubulin (TUBA1A, P02552)
The assay can be described thus: ([…] Å, C8 ring); mass photometry Kd-app. The format is binding.

Assay [2] relates to T2, HeLa cell line tubulin (HeLaT), αβ-tubulin heterodimer.
T2 construct: native αβ-tubulin purified from cultured HeLa cells (isotype mixture); with α1B-tubulin
The assay can be described thus: mass photometry of ring assembly (Kd-app). Type of assay: binding.

The target of assay [3] is T3, bovine brain tubulin (BBT), αβ-tubulin heterodimer.
T3 construct: native bovine brain αβ-tubulin (isotype mixture, PurSolutions)
The assay can be described thus: mass photometry of ring assembly (Kd-app). Type of assay: binding, Bos taurus.

A further assay has as its target T4, α1-tubulin (ChET) (Gallus gallus, UniProt P02552).
T4 construct: gene TUBA1A; native α1/β1-tubulin from chicken erythrocytes, Cp-52 C8 ring; with β1-tubulin (TUBB1, P09207)
The assay can be described thus: cryo-EM structure ([…] Å). The format is binding.

T1 sequence (P02552 whole entry): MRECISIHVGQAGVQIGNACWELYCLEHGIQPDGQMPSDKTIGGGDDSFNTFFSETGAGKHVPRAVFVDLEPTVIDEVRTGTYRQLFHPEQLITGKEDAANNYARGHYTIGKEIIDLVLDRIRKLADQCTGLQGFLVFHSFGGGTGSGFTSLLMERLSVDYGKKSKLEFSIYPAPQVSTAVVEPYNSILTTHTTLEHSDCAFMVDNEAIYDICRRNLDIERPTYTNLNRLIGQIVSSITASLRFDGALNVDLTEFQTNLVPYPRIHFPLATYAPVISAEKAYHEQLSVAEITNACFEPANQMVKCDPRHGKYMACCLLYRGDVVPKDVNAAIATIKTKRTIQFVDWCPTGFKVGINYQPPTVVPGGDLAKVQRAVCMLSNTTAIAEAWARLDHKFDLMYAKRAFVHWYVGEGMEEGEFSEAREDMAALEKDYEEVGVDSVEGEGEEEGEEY
T1 sequence (P09207 whole entry): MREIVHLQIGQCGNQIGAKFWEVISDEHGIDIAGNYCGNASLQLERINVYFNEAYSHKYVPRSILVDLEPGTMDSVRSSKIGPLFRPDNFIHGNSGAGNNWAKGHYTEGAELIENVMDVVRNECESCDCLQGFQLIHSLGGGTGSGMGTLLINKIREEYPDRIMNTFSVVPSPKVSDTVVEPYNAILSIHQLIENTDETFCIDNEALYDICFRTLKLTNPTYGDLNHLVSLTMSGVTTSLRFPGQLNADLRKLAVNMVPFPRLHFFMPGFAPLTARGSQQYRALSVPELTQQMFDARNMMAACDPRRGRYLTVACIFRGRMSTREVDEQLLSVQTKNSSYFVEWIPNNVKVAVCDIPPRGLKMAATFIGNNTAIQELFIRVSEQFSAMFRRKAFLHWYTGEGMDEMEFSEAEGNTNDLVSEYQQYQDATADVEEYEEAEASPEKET
T4 sequence (P02552 whole entry): as the sequence (P02552 whole entry) above
T4 sequence (P09207 whole entry partner): as the sequence (P09207 whole entry) above

Turning to `COc1ccc(C[C@H]2NC(=O)/C=C/C[C@@H]([C@H](C)[C@H]3O[C@@H]3c3ccccc3)OC(=O)[C@H](CC(C)C)OC(=O)C(C)(C)CNC2=O)cc1Cl` [Cp-52, cryptophycin-52], the Kd in assay [1] was found to be 65 ± 17 nM; in assay [2], 25 ± 7 nM; in assay [3], 172 ± 36 nM.

Consider `Nc1nc2c(ncn2[C@@H]2O[C@H](COP(=O)(O)OP(=O)(O)OP(=O)(O)O)[C@@H](O)[C@H]2O)c(=O)[nH]1` [GTP], for which the “cryo-EM structure (3.2 Å)” value on α1-tubulin (ChET) was “comprises one copy of α1-tubulin with its bound GTP”.
